Consider one molecule from patent US12329850B2, “Microalgae having high loliolide productivity” (KOREA RESEARCH INSTITUTE OF BIOSCIENCE AND BIOTECHNOLOGY, priority 2019, dated 2025).

Holding throughout (type): cell-based
Series [1] has as its system human dermal fibroblasts (HDFs). The experiment in a line: WST-1 assay, cytotoxicity of loliolide on human dermal fibroblasts. The conditions noted are these: loliolide up to 20 μg/mL, 24 hours. The method, then:
The purification of loliolide was performed in the same manner as in Example 3, and an extract was obtained using ethyl acetate from a lyophilized culture of the Scenedesmus sp. HS4 microalgae of the present invention, and loliolide was purified through fractionation/concentration. In the case of culturing human dermal cells, human dermal fibroblasts purchased from Lonza (Basel, Switzerland) were cultured in a 5% CO2 cell incubator at 37° C. using a medium in which 10% fetal bovine serum (FBS, 51480, Biowest, France) was further added to Dulbecco's modified Eagle's medium (DMEM medium, L0103-500, Biowest, France).
First, whether loliolide has cytotoxicity against human dermal fibroblasts was confirmed through WST-1 assay. After dispensing the cultured human dermal fibroblasts into a 96-well plate at 4×10^3 cells/well and culturing for 24 hours, the loliolide purified from Scenedesmus sp. HS4 microalgae was treated at concentrations of 0 μg/mL, 2 μg/mL, 5 μg/mL, 10 μg/mL, and 20 μg/mL, respectively. After 24 hours have elapsed after the loliolide treatment, the solution was treated in the medium using a WST-1 assay kit (EZ-cytox cell viability kit, Itshio, Korea), the absorbance was measured at a wavelength of 450 nm with a microplate reader (iMark microplate reader, Bio-Rad, USA).

Series [2] relates to human dermal fibroblasts irradiated with UVB. Description: WST-1 assay, cell viability recovery in UVB-irradiated human dermal fibroblasts. The conditions noted are these: loliolide 2 μg/mL for 6 hours, then UVB 10 mJ/cm^2, 24 hours. The method, then:
Human dermal fibroblasts cultured in the same manner as in Example 6 were dispensed in a 96-well plate by 4×10^3 cells/well, and loliolide was treated at concentrations of 2 μg/mL, 5 μg/mL, 10 μg/mL, and 20 μg/mL for 6 hours. Then, the medium was irradiated with UVB at 10 mJ/cm^2 and cultured further for 24 hours, and cell viability was measured by performing a WST-1 assay in the same manner as in Example 6.
In general terms: Formazan colour is commonly taken as a measure of viable cells.

For another series, the system named is ColA1 gene. The experiment in a line: qRT-PCR, expression of collagen gene in UVB-irradiated human dermal fibroblasts. To be noted: 24 hours, UVB-only control 30%. The method, then: (§1) First, human dermal fibroblasts cultured in the same manner as in Example 6 were dispensed in a 96-well plate in an amount of 4×10^3 cells/well, and UVB was irradiated to the medium at 10 mJ/cm^2. […] Thereafter, the changes in expression levels of the ColA1 gene and the MMP1 gene were measured through quantitative real time-PCR (qRT-PCR). During this process, SYBR green I (Invitrogen), which is a fluorescent material, was used to examine the amount of the DNA product amplified by PCR in real time. Specifically, 0.2 μM of the primers prepared with the sequences shown in Table 3 below were added to a PCR tube, and mixed with 50 mM KCl, 20 mM Tris/HCl (pH 8.4), 0.8 mM dNTP, 0.5 U DNA polymerase (Extaq DNA polymerase), 3 mM MgCl2 and 1×SYBR Green I so as to prepare a reaction solution. Then, PCR was performed using a PCR device (Linegene K, BioER, China)(PCR conditions: primary denaturation for 3 minutes, denaturation at 94° C. for 30 seconds, annealing at 58° C. for 30 seconds, and polymerization at 72° C. for 30 seconds, a total of 40 cycles), and the fluorescence intensity was measured for each cycle.

In the next series the test system is MMP1 gene. Description: qRT-PCR, expression of collagenase gene in UVB-irradiated human dermal fibroblasts. To be noted: 24 hours, UVB-only control 2.4-fold increase. The method, then: as §1
For orientation: Quantitative PCR measures a nucleic acid by following its amplification.

Where [3] appears, read: UVB 10 mJ/cm^2, then loliolide 5 μg/mL.
[4] abbreviates: UVB 10 mJ/cm^2, then loliolide 10 μg/mL.

Consider `CC1(C)C[C@H](O)C[C@@]2(C)OC(=O)C=C12` [loliolide], for which the “toxicity to human dermal fibroblasts (relative viability vs untreated control)” value in series [1] is “not toxic”. For the same molecule, the “cell viability compared to the UVB control group” value in series [2] is recorded as “significantly increased”. Moreover, the entries for the “expression level of ColA1 gene, based on cells without any treatment” value in the series on ColA1 gene (setting [3]) and in the series with ColA1 gene (setting [4]) were 55% and 65%, respectively. The “expression level of MMP1 gene” value with MMP1 gene (setting [3]) stood at 25%; with MMP1 gene (setting [4]) it was 46%.
